From US5808109A, “Compounds that inhibit complement and/or suppress immune activity” (T Cell Sciences, Inc., priority 1995, dated 1998)
Counter-ions that a name gives are not always drawn. Like-named read-outs stand apart in the source and are kept apart here.

Columns and labels:
[1] = system: human peripheral blood lymphocytes (PBL); assay: Inhibition of proliferation of peripheral blood lymphocytes, 3H-thymidine incorporation; format: cell-based; conditions: Lymphocyte, Table IX, 72 h
Experimental: The proliferation of human peripheral blood lymphocytes (PBL) in response to phytohemagglutinin (PHA, Well-come) or anti-CD3 monoclonal antibody (OKT-3, Ortho) was assessed by the incorporation of ^3 H-thymidine. Compound 11a was diluted in culture media to the desired concentrations, human PBL were added to a final concentration of 10^6 cells/ml, and then either PHA (Wellcome) or anti-CD3 (OKT3, Ortho) antibody (final concentration, […]) was added to initiate proliferation. The final volume per sample was 100 μl. The cells were incubated for 72 hours after stimulation, pulsed with 1 μCi ^3 H-thymidine per sample for 4 hours, harvested, and counted in a scintillation counter. […] Because cell viability was unaffected by the presence of 11a (see supra), the inhibition apparently was not due to cytotoxic effects.

human complement = assay: Inhibition of complement-mediated hemolysis, human serum, sensitized sheep erythrocytes; format: biochemical
Experimental: The ability to inhibit complement was also tested by assaying for inhibition of complement-mediated red cell lysis (hemolysis). The inhibition of hemolysis was determined as a function of compound concentration. The compounds to be tested were diluted in 0.1M Hepes buffer (0.15N NaCl, pH 7.4), and 50 μl were added to each well of a V-bottom microtiter plate. Human serum, used as the complement source, was diluted 1 to 500 in Hepes buffer, and 50 μl were added to each well. Next, commercially available sheep erythrocytes with anti-sheep antibody (Diamedix Cat. No. 789-001) were used as received and added at 100 μl/well to initiate the complement pathway leading to hemolysis. The plate was incubated for 60 minutes at 37° C. and then centrifuged at 500×g for 10 minutes. The supernatants were removed and placed in a flat-bottom microtiter plate. The extent of hemolysis was measured as a function of the sample absorbance at 410 nm. The maximal absorbance (corresponding to maximal hemolysis), Amax, was obtained from the absorbance value of an erythrocyte sample containing only human serum, AS, less the absorbance of a sample containing only the red cells, A0. Thus, Amax =AS -A0. The difference between the absorbance of an erythrocyte sample containing both human serum and inhibitive compound, and the absorbance of a cell sample containing inhibitive compound only, was defined as Asample. The inhibition, IH, was expressed as the fraction (Amax -Asample)/Amax, and IH50 was defined as the concentration of inhibitive compound required to produce a value of IH=1/2.
The 4 substituted spirobenzofuran compounds of example 7 and the disubstituted spirobenzofuran compounds of example 8 were tested for their capacity to inhibit complement-mediated lysis of sheep red blood cells (SRBC) as described in Section 6.6.2 supra with the modification that the human serum used as the complement source was diluted to 1 to 100 in Hepes buffer, instead of […]. The results of the hemolysis assays are shown in FIG. 8 and Tables XI and XII.

C3a production = assay: Inhibition of C3a production in human serum (aggregated IgG, RIA); format: biochemical; conditions: human serum, concentration inhibiting C3a production 50% relative to control
Experimental: (§1) The ability to inhibit complement was tested by assaying for specific inhibition of C3a and C5a production. For all experiments, a single human serum pool, to be used as a source of complement, was aliquoted and stored frozen at -70° C. Human IgG was heat-aggregated, aliquoted, and stored frozen at -70° C. For each experiment, serum aliquots were equilibrated at 37° C. with varying concentrations of the compounds tested. The classical complement pathway was initiated by the addition of aggregated human IgG. Control samples containing no IgG were always included. After a fixed reaction time of 10 minutes (determined in an earlier time-course study to provide a convenient time interval during which the production of C5a or C3a is nearly complete, i.e., greater than 90%), the levels of the released complement peptides (C5a or C3a) were determined by radioimmunoassay using commercially available radioimmunoassay (RIA) kits (C5a RIA, UpJohn Cat. No. 3250-02; C3a RIA, UpJohn Cat. No. 3245-01; C5a RIA, Amersham Cat. No. RPA.520; C3a RIA, Amersham RPA.518).
(§2) Since a competitive immunoassay was used, complement peptide (C5a and C3a) concentrations varied inversely with the counts. The Counts Bound (CB) for a sample was defined as the total counts (in counts per minute, cpm) measured in the pellet minus the counts measured in a nonspecific binding (NSB) control. The NSB control was a sample containing only tracer peptide (^125 I-labelled) and second precipitating antiserum; it contained no C5a- or C3a-specific antiserum.
(§3) The y-axis in FIG. 2 represents the fraction inhibition. The fraction inhibition is equal to the Counts Bound (CB) for a "sample," less the CB in the "sample with no added compound," divided by the CB for the "no IgG control" less the CB in the "sample with no added compound." [formula]
(§4) FIG. 2 is representative of the data plots obtained from the assays described above.

C5a production = assay: Inhibition of C5a production in human serum (aggregated IgG, RIA); format: biochemical; conditions: concentration inhibiting C5a production 50% relative to control
Experimental: as §1, §2, §3, §4

factor I = target: T1, factor I (Homo sapiens, UniProt P05156); assay: Inhibition of C3b proteolysis by factor I (SDS-PAGE densitometry); format: biochemical; conditions: sCR1 8 nM as cofactor, C3b 1.2 μM, factor I 0.1 μM, 60 min 37° C.; read-out: C3b cleavage by Factor I, concentration yielding 50% inhibition
T1 construct: purchased Cytotech, San Diego, Calif
T1 sequence (P05156 340-583 limits assumed): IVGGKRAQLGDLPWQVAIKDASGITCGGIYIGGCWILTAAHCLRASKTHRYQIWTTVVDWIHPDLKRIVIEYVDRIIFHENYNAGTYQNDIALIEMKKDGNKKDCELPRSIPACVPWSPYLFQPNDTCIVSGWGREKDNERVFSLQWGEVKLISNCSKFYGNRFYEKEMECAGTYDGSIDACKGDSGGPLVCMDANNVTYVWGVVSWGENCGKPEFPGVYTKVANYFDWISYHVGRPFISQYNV
Text: The reactions were stopped by the addition of reducing SDS-PAGE sample buffer (Laemmli, 1970, Nature, 227:680-685) subjected to electrophoresis on 4-20% polyacrylamide gradient gels, visualized with Coomassie Blue stain, and quantitated by densitometry. Controls lacking factor I and controls with factor I but lacking test compounds were included. Results are reported as the concentration of test compound which inhibited approximately fifty percent (50%) of the C3b a-chain degradation, IC50.

[2] = system: alternative complement pathway; assay: Inhibition of alternative pathway mediated hemolysis, rabbit erythrocytes, human serum; format: biochemical; conditions: Table XIV, human serum 1 in 24, read-out: Alternative pathway AH50
Experimental: The capacity of the substituted dihydrobenzofurans to inhibit the alternative complement pathway was assessed using the modified method of Platts-Mills and Ishizaka, 1974, J. Immunol., 113:348-358. Essentially, rabbit erythrocytes were lysed using human serum as complement in gelatin veronal buffer (GVB, Sigma, St. Louis, Mo.) with added EGTA (ethylene glycol-bis[β-aminoethyl ether]N,N,N^1,N^1 -tetraacetic acid) and Mg^2+ to 8 mM and 2 mM, respectively. Rabbit erythrocytes (4.5×10^6 cells/ml), human serum (1 in 24 dilution), and the compounds to be tested were incubated one hour at 37° C. in a V-bottom microtiter plate, cells pelleted by centrifugation, the supernatants transferred to a flat-bottom microtiter plate, and the absorbance at 410 nm determined. Samples were paired with identical controls lacking human serum (complement-independent lysis). Both samples and controls were run in triplicate. Control values were subtracted from sample values and the fractional inhibition was determined relative to the uninhibited (no added compound) sample. Results are reported as the concentration of compound yielding fifty per cent (50%) inhibition, AH50. The AH50 values for several of the compounds are included along with the results of other in vitro assays in Table XIV.

[3] = PHA stimulation, read-out: IP50 PHA-stimulated PBL
[4] = anti-CD3 (OKT-3) stimulation, read-out: IP50 OKT-3-stimulated PBL
[5] = Table VII, human serum, read-out: IHO50
[6] = Table XII, human serum diluted 1 to 100, read-out: IH50 Mean
[7] = Table XI, human serum diluted 1 to 100, read-out: IH50 Mean

Compound: COc1cc(C(=O)O)cc(O)c1CC1=CCCCC1 [Compound 15a]
- IC50 [1, 3]: 700 µM
- IC50 [1, 4]: 400 µM
- IC50 (human complement; [5]): 820 µM

Compound: COc1ccc(C(=O)O)c2c1CC(C)(C1CC=C(C)CC1)O2 (single isomer, unassigned; (+)) [(+)-20a]
- IC50 (C3a production): > 14000 µM
- IC50 [1, 3]: 2100 µM
- IC50 [1, 4]: 1700 µM
- IC50 (human complement; [5]): 680 µM
- IC50 (C5a production): 8000 µM

Compound: O=C(O)c1ccc2c(c1)OC1(CCCCC1)C2 [Compound 55g, 6-CARBOXYLSPIRO[BENZOFURAN-2(3H)-CYCLOHEXANE]]
- IC50 (human complement; [6]): 2320 µM

Compound: O=C(O)c1cc(O)c2c(c1)OC1(CCCCC1)C2 [Compound 31a]
- IC50 (human complement; [5]): 1450 µM
- IC50 (human complement; [6]): 1450 µM

Compound: O=C(O)c1cc(Oc2ccc([N+](=O)[O-])cc2)c2c(c1)OC1(CCCCC1)C2 [Compound 55e, 6-CARBOXYL-4-P-NITROPHENOXYSPIRO [BENZOFURAN-2(3H)-CYCLOHEXANE]]
- effectiveness in inhibiting complement-mediated hemolysis compared with K76COOH (human complement): more effective
- IC50 (human complement; [6]): 305 µM

Compound: CCOc1cc(C(=O)O)cc2c1CC1(CCCCC1)O2 [Compound 44b, 6-CARBOXYLATE-4-ETHOXY-SPIRO [BENZOFURAN-2(3H)-CYCLOHEXANE] SODIUM SALT]
- IC50 (human complement; [6]): 580 µM

Compound: COc1ccc(C(=O)O)c(O)c1CC1=CCCCC1 [Compound 12a, 3-(1'-CYCLOHEXENYL)METHYL-2-HYDROXY-4-METHOXYBENZOIC ACID]
- IC50 (C3a production): 13000 µM
- IC50 (human complement; [5]): 2100 µM
- IC50 (C5a production): 8000 µM

Compound: COc1ccc(C(=O)O)c2c1CC(C)(C1CC=C(C)CC1)O2 (single isomer, unassigned; (-)) [(-)-20a]
- IC50 (C3a production): 11000 µM
- IC50 (human complement; [5]): 380 µM
- IC50 (C5a production): 6000 µM

Compound: O=C(O)c1cc(Oc2ccccc2)c2c(c1)OC1(CCCCC1)C2 [Compound 55c, 6-CARBOXYL-4-PHENOXYSPIRO[BENZOFURAN-2(3H)-CYCLOHEXANE]]
- effectiveness in inhibiting complement-mediated hemolysis compared with K76COOH (human complement): more effective
- IC50 (human complement; [6]): 280 µM

Compound: Nc1ccc(Oc2cc(C(=O)O)cc3c2CC2(CCCCC2)O3)cc1 [Compound 55h, 4p-aminophenoxy-carboxyspiro[benzofuran2(3H)-cyclohexane]
- effectiveness in inhibiting complement-mediated hemolysis compared with K76COOH (human complement): more effective
- IC50 (human complement; [6]): 320 µM

Compound: O=C(O)c1ccc(Oc2cc(C(=O)O)cc3c2CC2(CCCCC2)O3)cc1 [Compound 55i, 6-CARBOXYL-4-P-CARBOXYLPHENOXYSPIRO[BENZOFURAN-2(3H)-CYCLOHEXANE]]
- IC50 (human complement; [6]): 1450 µM

Compound: CC1CCC2C(C)(C)C(O)C(O)CC2(C)C12Cc1c(O)cc(C(=O)O)c(C=O)c1O2 (stereo not drawn) [K76COOH, reference compound]
- IC50 (factor I): 110 µM
- IC50 [2]: 850 µM
- IC50 (human complement; [7]): 570 µM
- IC50 (human complement; [6]): 570 µM
- IC50 (human complement; Table XIV, read-out: Classical pathway IH50): 570 µM

Compound: COc1cc(C(=O)O)cc2c1CC1(CCCCC1)O2 [Compound 30a]
- IC50 (human complement; [5]): 530 µM

Compound: COc1cc(C=O)c(C(=O)O)c2c1CC1(CCCCC1)O2 [Compound 62, 7-CARBOXY-6-FORMYL-4-METHOXY PIRO[BENXOFURAN-2 (DH)-CYCLOHEXANE]
- IC50 (human complement; [7]): 1670 µM

Compound: CC1=CCC(C2(C)Cc3c(O)ccc(C(=O)O)c3O2)CC1 (single isomer, unassigned; (+)) [(+)-23a]
- IC50 (C3a production): > 14000 µM
- IC50 (human complement; [5]): 2100 µM
- IC50 (C5a production): > 14000 µM

Compound: COc1cc(C(=O)O)c(C(=O)O)c2c1CC1(CCCCC1)O2 [Compound 66, 6,7-DICARBOXYL-4-METHOXYSPIRO [BENZOFURAN-2(3H)-CYCLOHEXANE]]
- IC50 (human complement; [7]): 800 µM

Compound: CCCCOc1cc(C(=O)O)cc2c1CC1(CCCCC1)O2 [Compound 55b, 4-N-BUTYLOXY-6-CARBOXYLSPIRO[BENZOFURAN-2(3H)-CYCLOHEXANE]]
- IC50 (human complement; [6]): 430 µM

Compound: CC1=CCC(C2(C)Cc3c(O)ccc(C(=O)O)c3O2)CC1 (single isomer, unassigned; (-)) [(-)-23a]
- IC50 [1, 3]: 2800 µM
- IC50 [1, 4]: 2000 µM
- IC50 (human complement; [5]): 2400 µM

Compound: O=C(O)c1ccc(O)c2c1OC1(CCCCC1)C2 [Compound 14a]
- IC50 (human complement; [5]): 3000 µM

Compound: O=C(O)c1cc(OCc2ccccc2)c2c(c1)OC1(CCCCC1)C2 [Compound 55a, 4-BENZYLOXY-6-CARBOXYLSPIRO[BENZOFURAN-2(3H)-CYCLOHEXANE]]
- IC50 (human complement; [6]): 2530 µM

Compound: COc1ccc(C=O)c(O)c1CC1=CCCCC1 [Compound 12b, 3-(1'-CYCLOHEXENYL)METHYL-2-HYDROXY-4-METHOXYBENZALDEHYDE]
- IC50 (C3a production): 18000 µM
- IC50 (C5a production): 9000 µM

Compound: O=C(O)c1cc(OCCO)c2c(c1)OC1(CCCCC1)C2 [Compound 55d, 6-CARBOXYL-4-(2'-HYDROXYETHYLOXYSPIRO[BENZOFURAN-2(3H)-CYCLOHEXANE]]
- IC50 (human complement; [6]): > 2800 µM
